Reference: patent US6376510B1, “Neuromuscular relaxants” (Newlaxant LLC, priority 1997, dated 2002)
Read-outs that look alike come from different tables or passages of the source.

Assays:
[1] = test system: anesthetized rats (evoked responses of anterior tibial muscle); test: In vivo neuromuscular block and cardiovascular side effects, anesthetized rat (Example 8, Table 3); conditions: for RI (recovery index): spontaneous recovery, 25-75% neuromuscular response; for Onset: time to 80-85% neuromuscular block
Text: The neuromuscular blocking activity and other effects (e.g. cardiovascular side effects) of selected agents were investigated on several different experimental animals. Justification for this approach lies in the commonly known fact that the pharmacodynamic and pharmacokinetic properties of these agents are markedly variable from species to species. Therefore, the most important aspects of the projected therapeutic utility of these agents, e.g., neuromuscular blocking potency, onset and duration of action, and side effects cannot be ascertained in “in vitro” preparations or by using only one species of animals.
a) Adult, male albino rats were anesthetized with pentobarbital injected intraperitoneally. The trachea was cannulated for artificial respiration via a small animal respirator. The carotid artery was cannulated for recording blood pressure via a transducer and heart rate by a cardiotachograph on a polygraph. One external jugular vein was cannulated for i.v. drug administration. Neuromuscular function was monitored by electromyography, recording evoked responses from the anterior tibial muscle as a result of supramaximal nerve stimuli consisting of single or “train-of-four” rectangular pulses of 0.1-0.2 msec duration every 10-12 seconds, delivered to the sciatic or common peroneal nerve by a laboratory nerve stimulator. Another mode of stimulation included repeated single stimuli delivered at 0.1 Hz or 1 Hz. […] The agents were dissolved in physiologic saline and injected intravenously at appropriate time intervals. The intensity, onset, and duration of neuromuscular block and its type were determined with each agent. Through administering several doses, the doses corresponding to 50%, 80% and 90% neuromuscular block were determined. All agents were compared with selected standard neuromuscular blocking compounds, e.g. succinylcholine, pancuronium, mivacurium, or rocuronium.
Onset=time in minutes to 80-85% neuromuscular block.
RI=recovery index, minutes, spontaneous recovery, 25-75% neuromuscular response.
VB=vagal block, %, at 80-85% neuromuscular blocking dose.
ΔHR=change in heart rate, %, at 80-85% neuromuscular blocking dose.
ΔBP=change in arterial blood pressure, %, at 80-85% neuromuscular blocking dose.

rabbits = test: In vivo neuromuscular block and cardiovascular side effects, rabbit (Example 8, Table 7); conditions: for ED50: intravenous dose causing 50% neuromuscular block; for RI (recovery index): spontaneous recovery, 25-75% neuromuscular response; for Onset: time to 80-85% neuromuscular block
[2] = test system: anesthetized juvenile pigs; test: animal or person; type: in vivo; conditions: pig; for ED50: intravenous dose causing 50% neuromuscular block; for RI (recovery index): spontaneous recovery, 25-75% neuromuscular response; for Onset: time to 80-85% neuromuscular block
Text: Both electromyographic and mechanomyographic responses can be quantified.
The techniques described under a) and b) were employed in other species as needed with the modification that juvenile pigs were initially anesthetized with inhalation of halothane (Table 5) and monkeys were initially sedated with intramuscular ketamine injections prior to inducing and maintaining general anesthesia using pentobarbital and propofol administered intravenously (Table 6).

[3] = rat, intravenous dose causing 50% neuromuscular block
[4] = rat, at 80-85% neuromuscular blocking dose
[5] = at 80-85% neuromuscular blocking dose
[6] = Oryctolagus cuniculus, read-out: ED50

Row | Compound | RI (recovery index) ([1]; rat) | Onset ([1]; rat) | RI (recovery index) (rabbits) | Onset (rabbits) | VB (vagal block) [1, 4] | ΔBP (change in arterial blood pressure) [1, 4] | ΔH (change in heart rate) [1, 4] | ED50 ([1]; Rattus norvegicus, iv) | RI (recovery index) [2] | Onset [2] | ED50 (rabbits; [6]) | ΔBP (change in arterial blood pressure) (rabbits; [5]) | ΔH (change in heart rate) (rabbits; [5]) | other results
1 | COc1cc(C[N+]23CCC(CC2)C(OC(=O)[C@@H]2[C@@H](C(=O)OC4C[N+]5(Cc6ccc(OC(C)=O)c(OC)c6)CCC4CC5)[C@H]4C=C[C@@H]2C4)C3)ccc1OC(C)=O.[Br-].[Br-] (relative stereo) [bis[N-(4-acetoxy-3-methoxybenzyl)quinuclidinium-3-yl]trans-3,6-endomethylene-1,2,3,6-tetrahydrophthalate dibromide] | 3 min | 1.8 min | 4.5 min | 2.8 min |  |  |  |  |  |  |  |  |  | VB (vagal block) ([1]; rat, in vivo): 70%; ΔBP (change in arterial blood pressure) ([1]; rat, in vivo): −10%; ΔH (change in heart rate) ([1]; rat, in vivo): −5%; ED50 [1, 3]: 2 mg/kg; ΔBP (change in arterial blood pressure) (rabbits; in vivo): 0%; ΔH (change in heart rate) (rabbits; in vivo): 0%; ED50 (rabbits): 0.115 mg/kg
2 | COc1ccc(OC)c(C[N+]2(C)C3CCC2CC(OC(=O)C2C4C=CC(C4)C2C(=O)OC2CC4CCC(C2)[N+]4(C)Cc2cc(OC)ccc2OC)C3)c1.[Br-].[Br-] (stereo not drawn) [bis[N-(2,5-dimethoxybenzyl)tropanium-3α-yl]trans-3,6-endomethylene-1,2,3,6-tetrahydrophthalate dibromide] | 1.9 min | 1 min | 9 min | 4 min | 32% | 0% | 0% |  |  |  |  |  |  | ED50 [1, 3]: 0.057 mg/kg; ΔBP (change in arterial blood pressure) (rabbits; in vivo): 0%; ΔH (change in heart rate) (rabbits; in vivo): 0%; ED50 (rabbits): 0.01 mg/kg
3 | C[N+]1(Cc2ccccc2Br)[C@@H]2CC[C@H]1C[C@@H](OC(=O)CCCC(=O)O[C@H]1C[C@H]3CC[C@@H](C1)[N+]3(C)Cc1ccccc1Br)C2.[Br-].[Br-] (stereo partly drawn) [bis[N-(2-bromobenzyl)tropanium-3α-yl]glutarate dibromide, reference compound] | 3.6 min | 2.3 min |  |  | 100% | −9% | 0% | 1.4 mg/kg |  |  |  |  |  | 
4 | COc1cc(C[N+]2(C)[C@@H]3CC[C@H]2C[C@@H](OC(=O)CCCCCCCCCC(=O)O[C@H]2C[C@H]4CC[C@@H](C2)[N+]4(C)Cc2cc(OC)c(OC)c(OC)c2)C3)cc(OC)c1OC.[Br-].[Br-] (stereo partly drawn) [bis[N-(3,4,5-trimethoxybenzyl)tropanium-3α-yl]1,9-nonanedicarboxylate dibromide] | 1.8 min | 0.8 min | 2.5 min | 1.3 min | 10% | 0% | 0% | 0.18 mg/kg | 2.4 min | 1.5 min | 0.07 mg/kg | 0% | 0% | ED50 ([2]; Sus scrofa, read-out: ED50): 0.31 mg/kg; VB (vagal block) [2, 5]: 40%; ΔBP (change in arterial blood pressure) [2, 5]: 0%; ΔH (change in heart rate) [2, 5]: 0%
5 | CC(=O)Oc1ccc(C[N+]2(C)C3CCC2CC(OC(=O)C2C4C=CC(C4)C2C(=O)OC2CC4CCC(C2)[N+]4(C)Cc2ccc(OC(C)=O)c(OC(C)=O)c2)C3)cc1OC(C)=O.[Br-].[Br-] (stereo not drawn) [bis[N-(3,4-diacetoxybenzyl)tropanium-3β-yl]trans-3,6-endomet] [bis[N-(3,4-diacetoxybenzyl)tropanium-3β-yl]trans-3,6-endomethylene-1,2,3,6-tetrahydrophthalate dibromide] | 0.5 min | 0.68 min | 0.75 min | 0.8 min | 45% | 0% | 0% |  | 2 min | 1.1 min |  |  |  | ED50 [1, 3]: 0.258 mg/kg; VB (vagal block) ([2]; in vivo): 100%; ΔBP (change in arterial blood pressure) ([2]; in vivo): −5%; ΔH (change in heart rate) ([2]; in vivo): −10%; ED50 [2]: 0.16 mg/kg; ΔBP (change in arterial blood pressure) (rabbits; in vivo): 0%; ΔH (change in heart rate) (rabbits; in vivo): 0%; ED50 (rabbits): 0.21 mg/kg
6 | C[N+]1(CC=Cc2ccccc2)[C@@H]2CC[C@H]1C[C@@H](OC(=O)CCCCCCCCCCC(=O)O[C@H]1C[C@H]3CC[C@@H](C1)[N+]3(C)CC=Cc1ccccc1)C2.[Br-].[Br-] (stereo partly drawn) [bis[N-(3-(phenyl)prop-2-enyl)tropanium-3α-yl]1,10-decanedicarboxylate dibromide, reference compound] |  |  |  |  |  |  |  |  | 6.4 min | 1.60 min |  |  |  | ED50 ([2]; Sus scrofa, read-out: ED50): 0.17 mg/kg; VB (vagal block) [2, 5]: 27%; ΔBP (change in arterial blood pressure) [2, 5]: −10%; ΔH (change in heart rate) [2, 5]: 0%
7 | COc1cc(C[N+]2(C)[C@@H]3CC[C@H]2C[C@@H](OC(=O)C2CCC2C(=O)O[C@H]2C[C@H]4CC[C@@H](C2)[N+]4(C)Cc2cc(OC)c(OC(C)=O)c(OC)c2)C3)cc(OC)c1OC(C)=O.[Br-].[Br-] (stereo partly drawn) [bis[N-(4-acetoxy-3,5-dimethoxybenzyl)tropanium-3α-yl]cyclobutane-1,2-dicarboxylate dibromide] | 0.45 min | 0.4 min | 0.55 min | 0.5 min | 20% | 0% | 0% | 0.367 mg/kg |  |  | 0.298 mg/kg | 0% | 0% | 
8 | CCCCC[N+]1(C)[C@@H]2CC[C@H]1C[C@@H](OC(=O)CCCCCCCCC(=O)O[C@H]1C[C@H]3CC[C@@H](C1)[N+]3(C)CCCCC)C2.[Br-].[Br-] (stereo partly drawn) [bis[N-(pentyl)tropanium-3α-yl]sebacate dibromide, reference compound] |  |  |  |  |  |  |  |  | 6.9 min | 2.00 min |  |  |  | ED50 ([2]; Sus scrofa, read-out: ED50): 0.3 mg/kg; VB (vagal block) [2, 5]: 50%; ΔBP (change in arterial blood pressure) [2, 5]: 0%; ΔH (change in heart rate) [2, 5]: 0%
9 | C[N+]1(Cc2ccccc2)[C@@H]2CC[C@H]1C[C@@H](OC(=O)CCCC(=O)O[C@H]1C[C@H]3CC[C@@H](C1)[N+]3(C)Cc1ccccc1)C2.[Br-].[Br-] (stereo partly drawn) [bis[N-benzyltropanium-3α-yl]glutarate dibromide, reference compound] | 3.7 min | 2.5 min |  |  | 100% | −10% | 0% | 5.5 mg/kg |  |  |  |  |  | 
10 | C[N+]1(Cc2ccccc2)[C@@H]2CC[C@H]1C[C@@H](OC(=O)CCCCCCCCC(=O)O[C@H]1C[C@H]3CC[C@@H](C1)[N+]3(C)Cc1ccccc1)C2.[Br-].[Br-] (stereo partly drawn) [bis[N-benzyltropanium-3α-yl]sebacate dibromide, reference compound] |  |  | 6 min | 2.3 min |  |  |  |  |  |  | 0.075 mg/kg | 0% | 0% | 
11 | CC[N+]1(C)[C@@H]2CC[C@H]1C[C@@H](OC(=O)CCCCC(=O)O[C@H]1C[C@H]3CC[C@@H](C1)[N+]3(C)CC)C2.[I-].[I-] (stereo partly drawn) [bis[N-ethyltropanium-3α-yl]adipate diiodide, reference compound] |  |  | 9 min | 2.2 min |  |  |  |  |  |  | 0.15 mg/kg | 0% | 0% | 
12 | C[N+]1(C)[C@@H]2CC[C@H]1C[C@@H](OC(=O)CCCC(=O)O[C@H]1C[C@H]3CC[C@@H](C1)[N+]3(C)C)C2.[I-].[I-] [bis[N-methyltropanium-3α-yl]glutarate diiodide, reference compound] | 4.2 min | 1.2 min |  |  | 100% | 0% | 0% | 2 mg/kg |  |  |  |  |  | 
